Patent US6613322B2, “Method for treating a subject suffering from conditions associated with an extracellular zinc sphingomyelinase” (The Trustees of Columbia University in the City of New York, priority 1997, dated 2003)

Key:
lysosomal hydrolases = assay: 125I-EGF degradation by aortic strips; parameters: species or system rabbit; settings: 200 μM chloroquine, 3.5 h
Description: Iodination of EGF and assay for ^125I-EGF degradation. Epidermal growth factor (50 μg) was radioiodinated to a specific activity of 5400 counts/min/ng (IODOBEADS®, Pierce Chemical Co., Rockford, Ill.) and was used within 48 h of labeling.
For this study, ^125I-labeled epidermal growth factor (^125I-EGF) was used, which is known to be internalized by receptor-mediated endocytosis and degraded in lysosomes in many cell types (Goldstein et al., 1985).

lysosomal SMase = target: T1, lysosomal SMase (Homo sapiens, UniProt P17405); assay: Cellular hydrolysis of [3H]SM-LDL by cultured human fibroblasts; assay type: cell-based; settings: read-out: inhibition of cellular hydrolysis of [3H]SM-LDL
T1 construct: endogenous in cells; host or cells: cultured human fibroblasts
T1 sequence (P17405 47-631): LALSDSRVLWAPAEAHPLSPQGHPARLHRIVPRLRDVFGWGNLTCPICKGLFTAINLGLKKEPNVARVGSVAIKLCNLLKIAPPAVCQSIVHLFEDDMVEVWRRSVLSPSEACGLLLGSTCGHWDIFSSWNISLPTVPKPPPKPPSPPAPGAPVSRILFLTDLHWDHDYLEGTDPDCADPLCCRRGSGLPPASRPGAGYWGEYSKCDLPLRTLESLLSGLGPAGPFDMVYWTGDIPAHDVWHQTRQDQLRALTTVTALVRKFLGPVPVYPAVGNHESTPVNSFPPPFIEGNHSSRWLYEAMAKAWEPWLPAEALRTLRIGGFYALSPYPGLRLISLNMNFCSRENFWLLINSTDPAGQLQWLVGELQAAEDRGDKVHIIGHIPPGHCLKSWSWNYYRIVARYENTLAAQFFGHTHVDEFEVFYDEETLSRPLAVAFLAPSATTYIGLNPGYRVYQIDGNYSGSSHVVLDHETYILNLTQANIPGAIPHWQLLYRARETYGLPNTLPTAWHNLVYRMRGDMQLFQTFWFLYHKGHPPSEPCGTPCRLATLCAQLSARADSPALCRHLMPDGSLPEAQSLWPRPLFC
Description: Second, the ability of chloroquine to work in the aortic strip assay was tested.

arterial-wall SMase = settings: for hydrolysis of LDL-sphingomyelin by rabbit aorta ex vivo (summary statement): Example 4 restatement
Description: Hydrolysis of [^3H]SM-LDL by strips of rabbit aorta. Aortae were isolated from rabbits fed a high-cholesterol diet for 18 d and incubated ex vivo for 3.5 h at 37° C. with 2 mg [^3H]palmitate-SM-labeled LDL per ml DMEM/0.2% BSA (usually ^18 12 mg total). Material extracted from these strips (Retained) was assayed for [^3H]SM and [^3H]ceramide; approximately 0.1% of the [^3H]SM-LDL (10-20 μg LDL protein) was retained during the 3.5-h incubation period. These [^3H]lipids were also assayed in ^3[H]SM-LDL not exposed to aorta but incubated in extraction buffer (No Aorta) as well as in [^3H]SM-LDL that was not retained by the aortic strips (i.e., still present in the medium after the 3.5-h incubation) and also incubated in extraction buffer (Unretained). For experiments #1 and #2 (FIG. 6A), portions of the aortic strips were preincubated with DMEM/0.2% BSA containing 15 mM EDTA for 30 min, and the 3.5-h incubation was also carried out in the presence of 15 mM EDNA.
Assay for LDL-SM hydrolysis by strips of rabbit aorta ex vivo. New Zealand white male rabbits (2-3 kg) were fed a chow diet containing 0.2% cholesterol and 10% soybean oil (w/w) for 18 days. The animals were sacrificed, and the thoracic aortae were removed rapidly and placed in a dissection dish with physiological Hank's Trizma maleate buffer (133 mM NaCl, 3.6 mM KCl, 1.0 mM CaCl2, 5.0 mM Trizma maleate, 16 mM dextrose, pH 7.3). The aortae were then further dissected to remove excess fat and any clotted blood and then cut longitudinally and pinned, lumen side up, in a tissue culture dish. The aortic strips were washed several times with DMEM/0.2% BSA and incubated at 37° C. for 3.5 h in DMEM/0.2% BSA containing 2 mg [^3H]SM-labeled LDL per ml. […] When present, these reagents were also added to the corresponding incubation media containing labeled LDL (see legend to FIG. 5). After the 3.5-h incubation of labeled LDL with aortic strips, media were removed (see below), the aortic strips were quickly washed twice in ice-cold PBS, and the center of the strip was cut away from the original cut ends. These center pieces were then minced and extracted in PBS, pH 7.4, containing 6 M guanidine-HCl, 5 mM EDTA, 0.02% sodium azide, 35 μM leupeptin, 1.5 mg aprotinin/ml, and 5 μM pepstatin A for 36 h at 4° C. The extract was centrifuged at 35,000×g for 30 min, and lipids were extracted from the supernate by the method of Bligh and Dyer (Bligh et al., 1959). [^3H]palmitate-SM, ^3 [H]palmitate-ceramide, and free [^3H]palmitate in the lipid extracts were separated by TLC using chloroform:methanol (95:5, v/v) or n-propanol:12.5% ammonium hydroxide (80:20, v/v). […]

B. cereus SMase = B. cereus SMase (Bacillus cereus, UniProt P11889); settings: 25 mM EDTA present from the start; 50 mU B. cereus SMase/ml, LDL 2 mg/ml, 37° C.
Sequence of B. cereus SMase (P11889 28-333): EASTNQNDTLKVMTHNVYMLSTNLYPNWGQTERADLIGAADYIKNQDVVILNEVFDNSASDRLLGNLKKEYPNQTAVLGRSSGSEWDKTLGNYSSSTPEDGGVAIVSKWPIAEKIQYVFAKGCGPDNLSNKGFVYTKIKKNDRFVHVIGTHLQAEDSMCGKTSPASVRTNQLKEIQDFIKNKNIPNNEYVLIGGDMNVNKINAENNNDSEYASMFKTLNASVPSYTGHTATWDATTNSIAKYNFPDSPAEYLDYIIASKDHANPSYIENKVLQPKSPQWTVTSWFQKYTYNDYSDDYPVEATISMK
Description: Kinetics of SM hydrolysis and LDL aggregation induced by SMase and the effects of enzymatic inhibition. FIG. 1A: LDL (2 mg/ml) was incubated with 50 mU B. cereus SMase/ml at 37° C. in PES containing 5 nM MgCl2. At the indicated time points, aliquots of the LDL were harvested then assayed for extent of SM hydrolysis (closed triangles) and for aggregation (open squares) FIG. 1B. LDL was incubated in PBS containing 5 mM MgCl2 in the absence of SMase (filled circles), or in the presence of SMase without EDTA (open squares), with 25 mM EDTA present from the start of the incubation (open triangles), or with 25 mM EDTA added after 20 min of incubation (closed triangles) Samples were assayed for turbidity at the indicated timepoints. FIG. 1C, Aliquots from the 180-min timepoint in FIG. 1B were assayed for SM content.
Careful analysis of the time course of B. cereus SMase-induced LDL aggregation and LDL-SM hydrolysis was done. […] These kinetics are consistent with two possible mechanisms: a slow structural action of SMase, or a rapid enzymatic action that alters the particles so that they then slowly aggregate. To distinguish between these possibilities, EDTA was used to inhibit the enzymatic activity of the bacterial B. cereus SMase, which is a Mg^2+-dependent enzyme (Ikezawa et al., 1986).

S-SMase = target: T2, S-SMase (Mus musculus, UniProt Q04519); assay: SMase assay of conditioned medium from J774 macrophages (SM micelles, pH 5.0); assay type: biochemical; settings: treatment with EDTA alone
T2 construct: endogenous in cells; host or cells: J774.A1 macrophages, serum-free conditioned medium
T2 sequence (Q04519 45-627): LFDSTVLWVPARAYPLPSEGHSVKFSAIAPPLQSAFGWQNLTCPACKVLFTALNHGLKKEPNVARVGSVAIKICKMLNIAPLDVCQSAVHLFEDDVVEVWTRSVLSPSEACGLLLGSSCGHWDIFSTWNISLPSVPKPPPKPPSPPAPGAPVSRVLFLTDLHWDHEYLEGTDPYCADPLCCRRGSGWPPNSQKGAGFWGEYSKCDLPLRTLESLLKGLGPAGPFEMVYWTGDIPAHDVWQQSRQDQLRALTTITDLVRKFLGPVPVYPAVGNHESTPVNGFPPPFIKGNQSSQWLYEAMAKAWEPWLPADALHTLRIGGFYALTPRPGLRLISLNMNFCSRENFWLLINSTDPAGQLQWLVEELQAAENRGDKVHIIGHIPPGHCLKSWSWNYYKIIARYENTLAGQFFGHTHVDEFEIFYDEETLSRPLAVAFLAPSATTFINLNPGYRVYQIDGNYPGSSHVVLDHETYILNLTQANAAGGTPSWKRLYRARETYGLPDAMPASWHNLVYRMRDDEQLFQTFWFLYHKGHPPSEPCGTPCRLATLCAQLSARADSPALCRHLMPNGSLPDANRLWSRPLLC
Description: FIGS. 14A-B. Sequential chelation and addition of Zn^2+ to secreted and intracellular SMase. Serum-free conditioned medium and a cell homogenate from J774 macrophages were prepared as described in “Experimental Procedures”. FIG. 14A, conditioned medium (CM) was assayed for SMase activity using 250 nM [^3H]sphingomyelin in Triton X-100 micelles in the presence of either 5 mM EDTA (first bar) or 0.1 mM ZnCl2 (second bar) for 1 h at 37° C. at pH 5.0. An aliquot of the Zn-activated conditioned medium was then incubated for 18 h in the presence of 10 mM EDTA, 10 mM 1,10-phenanthroline, and 0.6% Triton X-100 at 4° C. (EDTA PHNANTH) and then assayed for SMase activity (third bar). After chelation, a portion of this partially inactivated conditioned medium was then dialyzed against zinc-containing buffer C (150 mM NaCl, 10 mM Tris-HCl, 1 mM ZnCl2, 0.6% Triton X-100, pH 7.4) for 18 h and then assayed for SMase activity (fourth bar). FIG. 14B, an aliquot of cell homogenate (Cell Homgn) was assayed for SMase activity in the presence of assay buffer alone (first bar), 5 mM EDTA (second bar), or 0.1 mM ZnCl2 (third bar). Another aliquot of cell homogenate was incubated for 8 h in the presence of 10 mM EDTA, 10 mm 1,10-phenanthroline, and 0.6% Triton X-100 (EDTA PHNANTH) at 4° C. and then assayed for SMase activity (fourth bar). An aliquot of this chelator-treated cell homogenate was then dialyzed against zinc-containing buffer C for 18 h and then assayed for SMase activity (fifth bar).
(§1) SMase Assay—As previously described (Schissel et al., 1996), the standard 200-μl assay mixture consisted of up to 40 μl of sample (conditioned media or homogenized cells; see above) and a volume of assay buffer (0.1 M sodium acetate, pH 5.0) to bring the volume to 160 μl. […] The ceramide spots were scraped and directly counted to quantify [^3H]ceramide. Typically, the assay reactions contained approximately 20 μg of cellular homogenate protein and a volume of conditioned media derived from a quantity of cells equivalent to approximately 50 μg of cellular protein.

L-SMase = target: T3, L-SMase (Mus musculus, UniProt Q04519); assay: SMase assay of cell homogenate from J774 macrophages (SM micelles, pH 5.0); assay type: biochemical; settings: 5 mM EDTA in assay
T3 construct: endogenous in cells; host or cells: J774.A1 macrophages, sonicated cell homogenate
T3 sequence (Q04519 45-627): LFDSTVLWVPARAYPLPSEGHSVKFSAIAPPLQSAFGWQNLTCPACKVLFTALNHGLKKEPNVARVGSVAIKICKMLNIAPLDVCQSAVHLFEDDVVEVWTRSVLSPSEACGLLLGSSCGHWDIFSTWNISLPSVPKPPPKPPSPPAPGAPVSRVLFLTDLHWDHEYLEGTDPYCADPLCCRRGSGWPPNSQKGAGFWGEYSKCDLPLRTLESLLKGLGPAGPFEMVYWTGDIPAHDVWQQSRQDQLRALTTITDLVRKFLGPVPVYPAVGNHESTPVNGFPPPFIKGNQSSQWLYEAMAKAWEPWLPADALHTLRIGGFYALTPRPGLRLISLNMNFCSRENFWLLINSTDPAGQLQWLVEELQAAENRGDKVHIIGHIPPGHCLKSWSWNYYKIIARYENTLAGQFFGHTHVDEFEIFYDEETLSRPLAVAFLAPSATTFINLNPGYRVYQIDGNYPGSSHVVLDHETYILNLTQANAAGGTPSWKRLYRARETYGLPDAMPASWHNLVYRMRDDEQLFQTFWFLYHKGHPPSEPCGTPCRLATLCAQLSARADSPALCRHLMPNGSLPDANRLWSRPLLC
Description: FIGS. 14A-B. Sequential chelation and addition of Zn^2+ to secreted and intracellular SMase. Serum-free conditioned medium and a cell homogenate from J774 macrophages were prepared as described in “Experimental Procedures”. FIG. 14A, conditioned medium (CM) was assayed for SMase activity using 250 nM [^3H]sphingomyelin in Triton X-100 micelles in the presence of either 5 mM EDTA (first bar) or 0.1 mM ZnCl2 (second bar) for 1 h at 37° C. at pH 5.0. An aliquot of the Zn-activated conditioned medium was then incubated for 18 h in the presence of 10 mM EDTA, 10 mM 1,10-phenanthroline, and 0.6% Triton X-100 at 4° C. (EDTA PHNANTH) and then assayed for SMase activity (third bar). […]
as §1

EC matrix = assay: 125I-S-SMase binding to matrix derived from cultured cells; settings: in presence of lipoprotein lipase
From the text: In vitro, Smase causes lipoprotein aggregation, which is a key feature of atheromata and an inducer of foam cells. […] We have identified S-Mase (JBC 271:18431) as a candidate for this arterial Smase, owing to its secretion by endothelial cells (ECs) and macrophages and for its ability to hydrolzye atherogenic lipoproteins (JBC 273:2738 & 4081). We addressed two questions critical to the role of S-SMase in atherogenesis: is S-SMase present in lesions and does S-SMase bind matrix after secretion? Using two different anti-SMase antibodies, Smase staining was prominent in the endothelium of normal rabbit and mouse aorta. In atherosclerotic aorta from cholesterol-fed rabbits and apoE knockout mice and in human coronary lesions, there was very heavy Smase staining throughout the entire intima (endothelium and foam cells). In both normal and lesional aorta, there was staining of the mdia but far less than in the intima. […] To explore this point in vitro, ^125I-S-SMase was incubated with matrix derived from cultured smooth muscle or Ecs. With both, the moles of bound ^125I-S-SMase were≧bound ^125I-LDL, which is known to associate with matrix in vitro and in vivo. […] In summary, Smase, an enzyme implicated in atherogenesis, is present in normal endothelium and especially lesional intima, and there is evidence that S-Mase binds matrix both in vivo and in vitro.

[1] = test system: S-SMase secretion by HUVECs; assay: Cytokine regulation of S-SMase secretion by HUVECs (SMase activity in conditioned media); assay type: cell-based, human; settings: 18 h, IL-1β 5 ng/ml, interferon-γ 1000 units/ml
Description: The cells were then washed 3 times with PBS and incubated for 24 h in 1 ml fresh serum-free media containing 0.2%6 BSA. This 24-h conditioned medium was collected for SMase assays.
Harvesting of Cells and Conditioned Media—Following the incubations described above and in the figure legends, cells were placed on ice and the serum-free conditioned media was removed. The cells were washed two times with ice-cold 0.25 M sucrose and scraped into 0.3 ml and 3.0 ml of this sucrose solution per 35-mm and 100-mm dishes, respectively. Unless indicated otherwise, the scraped cells were disrupted by sonication on ice using three 5-second bursts (Branson 450 Sonifier), and the cellular homogenates were assayed for total protein by the method of Lowry et al. (22) and for SMase activity as described below. The conditioned media were spun at 800×g for 5 min to pellet any contaminating cells and concentrated six-fold using a Centriprep 30 (Amicon; Beverly, Mass.) concentrator (molecular weight cut off=30,000).
Typically, our assay reactions contained approximately 20 μg of cellular homogenate protein and a volume of conditioned media derived from a quantity of cells equivalent to approximately 50 μg of cellular protein.

L-SMase of HUVECs = assay: Cytokine regulation of L-SMase activity in HUVEC cell homogenates; assay type: cell-based, human; settings: cytokine-treated endothelial cells
Description: FIGS. 23A-B. Cytokine regulation of S- and L-SMase of HUVECs. […] Conditioned media (FIG. 23A) and cell homogenates (FIG. 23B) from these cells were then assayed for SMase activity in the presence or absence of 0.1 mM ZnCl2, respectively.
Cells—Primary cultures of HUVEC were obtained from fresh umbilical cords and maintained in cell culture as previously described (31). Human coronary artery endothelial cells from a donor were purchased from Clonetics Corp. (San Diego, Calif.; cat. # CC-2585, Strain #3033). The cells were grown in endothelial basal media (EBM) (Clonetics) supplemented with 10% HI-FES; 10 μg endothelial cell growth supplement/ml (Sigma; cat. # E0760) and 50 μg gentamicin/ml. Primary cultures of bovine aortic endothelial, cells were established and subcultured as described previously (32). […]

## CCN(CC)CCCC(C)Nc1ccnc2cc(Cl)ccc12 (stereo not shown) [chloroquine]
Lysosomal hydrolases
  block of degradation of 125I-EGF: 50%
Lysosomal SMase
  inhibition at 50 µM: 73%
arterial-wall SMase; 200 μM chloroquine, 30 min preincubation and 3.5-h incubation
  inhibition of [3H]ceramide enrichment of retained material: no substantial inhibition
arterial-wall SMase
  hydrolysis of LDL-sphingomyelin by rabbit aorta ex vivo (summary statement): not inhibited

## O=C(O)CN(CCN(CC(=O)O)CC(=O)O)CC(=O)O [EDTA]
B. cereus SMase
  inhibition of LDL aggregation (turbidity): complete inhibition
  inhibition of LDL-SM hydrolysis: complete inhibition
S-SMase
  effect on S-SMase enzyme activity: did not affect enzyme activity
L-SMase
  inhibition of L-SMase in cell homogenates: not inhibited
arterial-wall SMase; 15 mM EDTA, 30 min preincubation and 3.5-h incubation with [3H]SM-LDL
  decrease in generation of ceramide in extracted (retained) material: approximately 50%
arterial-wall SMase
  hydrolysis of LDL-sphingomyelin by rabbit aorta ex vivo (summary statement): inhibited

B1: lipoprotein lipase: arterial-wall enzyme (protein, UniProt P06858 28-475, looked up)
Lipoprotein lipase: ADQRRDFIDIESKFALRTPEDTAEDTCHLIPGVAESVATCHFNHSSKTFMVIHGWTVTGMYESWVPKLVAALYKREPDSNVIVVDWLSRAQEHYPVSAGYTKLVGQDVARFINWMEEEFNYPLDNVHLLGYSLGAHAAGIAGSLTNKKVNRITGLDPAGPNFEYAEAPSRLSPDDADFVDVLHTFTRGSPGRSIGIQKPVGHVDIYPNGGTFQPGCNIGEAIRVIAERGLGDVDQLVKCSHERSIHLFIDSLLNEENPSKAYRCSSKEAFEKGLCLSCRKNRCNNLGYEINKVRAKRSSKMYLKTRSQMPYKVFHYQVKIHFSGTESETHTNQAFEISLYGTVAESENIPFTLPEVSTNKTYSFLIYTEVDIGELLMLKLKWKSDSYFSWSDWWSSPGFAIQKIRVKAGETQKKVIFCSREKVSHLQKGKAPAVFVKCHDKSLNKKSG
EC matrix
  S-SMase binding to matrix: enhanced

B2: interferon-γ: human recombinant interferon-γ (protein, UniProt P01579 24-161, looked up)
Interferon gamma: QDPYVKEAENLKKYFNAGHSDVADNGTLFLGILKNWKEESDRKIMQSQIVSFYFKLFKNFKDDQSIQKSVETIKEDMNVKFFNSNKKKRDDFEKLTNYSVTDLNVQRKAIHELIQVMAELSPAAKTGKRKRSQMLFRG
[1]
  increase of S-SMase activity / secretion (conditioned media): ~3 fold
L-SMase of HUVECs
  L-SMase (lysosomal SMase) activity: decreased
